These results are taken from publication PMC5125089 (Lung cancer (Amsterdam, Netherlands), 2015).

≈ marks a conversion by molar mass, not a printed value.

In data set [1] the test system is NSCLC cell lines. The settings on record: cited from earlier work.
The conditions of data set [2]: phase 1 monotherapy trial; cited from earlier work.
Data set [3] has as its system EGFR pathway components. Description: EGFR pathway components in skin biopsies. Particulars: romidepsin monotherapy. In kind it is in vivo, patients.
Data set [4] relates to histone H4 acetylation. In words: Histone H4 acetylation status in PBMCs. In kind it is in vivo, patients. Particulars: for normalized H4 acetylation values, mean increase: P < 0.01.
Data set [5] deals with lung cancer. The settings on record: romidepsin monotherapy, previously treated lung cancer; cited from earlier work.
For data set [6], the system named is histone H3 acetylation. Description: Histone H3 acetylation status in PBMCs. In kind it is in vivo, patients. The settings on record: for normalized H3 acetylation values, mean increase: P < 0.01.
The mark [7] stands for this setting: both 8 mg/m^2 and 10 mg/m^2 dose levels, P < 0.001.

In the case of `C#Cc1cccc(Nc2ncnc3cc(OCCOC)c(OCCOC)cc23)c1` [erlotinib], for the setting “human, in vivo”, the “Acneiform Rash, Possible Relationship to Erlotinib” value was “Y (7/7)”; the “Acute kidney injury, Possible Relationship to Erlotinib” value was “Y (1/1)”; the “Anorexia, Possible Relationship to Erlotinib” value is “Y (9/9)”; the “Diarrhea, Possible Relationship to Erlotinib” value was “Y (9/11)”. For the same molecule, where the note is “human, in vivo”, the “Dry Skin, Possible Relationship to Erlotinib” value is “Y (2/2)”; the “Fatigue, Possible Relationship to Erlotinib” value is “Y (9/14)”; the “Mouth Blister, Possible Relationship to Erlotinib” value is “Y (4/4)”; the “Nausea, Possible Relationship to Erlotinib” value was “Y (4/14)”. In addition, under “human, in vivo”, the “Vomiting, Possible Relationship to Erlotinib” value is reported as “Y (5/14)”; the “Weight Loss, Possible Relationship to Erlotinib” value was “Y (2/3)”; the “↑ Glucose, Possible Relationship to Erlotinib” value is given as “Y (1/3)”; the “↓ Hgb/Anemia, Possible Relationship to Erlotinib” value is listed as “Y (2/5)”. Also, under “in vivo”, the “Dyspepsia, Possible Relationship to Erlotinib” value is given as “N”; the “Sinus tachycardia, Possible Relationship to Erlotinib” value is “N”; the “↓ Potassium, Possible Relationship to Erlotinib” value is on record as “N”.

`C/C=C1\NC(=O)[C@H]2CSSCC/C=C/[C@H](CC(=O)N[C@H](C(C)C)C(=O)N2)OC(=O)[C@H](C(C)C)NC1=O` [romidepsin]: the “IC50 against NSCLC cell lines in vitro” value in data set [1] is 2.25 ng/mL (≈ 4.16 nM). Besides, in data set [2], the dose-limiting toxicities result was “grade 3 thrombocytopenia and fatigue”. Moreover, the “maximum tolerated dose of romidepsin” value (in combination with erlotinib 150 mg orally daily, Days 1, 8, and 15 every 28 days, IV, with multi-drug antiemetic prophylaxis) came out at 8 mg/m^2. For the same molecule, in data set [3], the “effect on expression of EGFR, MAPK, or phospho-MAPK” value is given as “no discernible effect”. The “effect on expression of phosphorylated EGFR” value in data set [3] (day 3 pre-erlotinib, P = 0.09) is reported as “trend toward decreased expression”. The “normalized H4 acetylation values, mean increase” value is on record as 3.20 ± 2.40 in data set [4] (8 mg/m^2 cohort) and 2.26 ± 0.47 in data set [4] (10 mg/m^2 cohort). In addition, the “effect on H4 histone acetylation” value in data set [4] (setting [7]) was “concomitant increase”. Also, the “patients who achieved stable disease” value in data set [5] is recorded as 9 of 18. Further, the entries for the “normalized H3 acetylation values, mean increase” value in data set [6] (8 mg/m^2 cohort) and in data set [6] (10 mg/m^2 cohort) were 2.10 ± 0.71 and 2.18 ± 1.09, respectively. Also, the “effect on H3 histone acetylation” value in data set [6] (setting [7]) is “concomitant increase”.
